Data from patent US20260028382A1, “IMMUNOGENIC PEPTIDES AND THEIR USES IN CANCER DIAGNOSIS AND THERAPY” (The Chinese University of Hong Kong, priority 2024, published 2026).

System: CD8+ T cells
Assay: IFN-γ ELISpot assay of peptide immunogenicity (peptide-pulsed DC:CD8+ T cell co-culture)
Assay type: cell-based, human
From the text: We obtained peripheral mononuclear cells (PBMCs) from healthy donor buffy coat samples via density gradient centrifugation. We utilized QIAamp DNA Blood Kits (Qiagen) to isolate DNA for HLA typing with LinkSeq™ HLA-ABCDRDQDP+ 384 Kit (One Lambda) on a QuantStudio™ 7 Flex Real-Time PCR System. Human T and dendritic cells (DCs) were enriched from PBMCs using a CD8 cell isolation kit and Pan-DC enrichment kit (Miltenyi Biotec), respectively, and subsequently cultured in RPMI-1640 medium (Life Technologies) supplemented with 10% FBS and 100 U/mL of Penicillin-Streptomycin.
Dendritic cells (DCs) were pulsed with a 10 μg mL^−1 peptide concentration at a cell density of 10^5 cells/mL for 4 hours at 37° C. Following this, the DCs were mixed with autologous CD8+ T cells at a DC:T cell ratio of 1:10. The cell mixture was then aliquoted into an ELISpot plate at 100 μL per well and incubated for 24 hours. The secreted IFN-γ signal was detected using the ELISpot Plus Human IFN-γ (ALP) kit (Mabtech). […]
We utilized ELISpot assay, which quantifies cytokine IFN-γ releasing by CD8^+ T lymphocytes isolated from PBMCs of healthy subjects, to verify the immunogenic potential of candidate peptides. […] We co-cultured pan-DCs loaded with the candidate peptides with autologous CD8′ T cells for 24 hours and assessed the secretion of IFN-γ as an indicator of T-cell activation and immunogenicity.

Row | Sequence | T cell response (IFN-γ secretion) (peptide concentration of 1 ug mL^−1, DC:CD8+ T cell co-culture, 24 hours, healthy donors) | immunogenicity demonstrated in the ELISpot analysis
1 | MCDEDETTA [Actin1-9, peptide derived from human Actin within the amino acid region 1-9, negative control] | negligible response | 
2 | STIHLASQFTK (Description of sequence: non-canonical peptide, associated gene: CRYBG1, classification: CDS (frame-shift), short form name: p9; listed as Homo sapiens) |  | strong immunogenicity
